Laboratory results: US20260070887A1 (Shenzhen Zhongge Biological Technology Co., Ltd., priority 2022, published 2026)
Read-outs that look alike come from different tables or passages of the source.

Tests used:
[1] = test system: HCC1395 cells; test: HCC1395 cell proliferation (Cell Titer-Glo, 6 days); format: cell-based; conditions: KIF18A-insensitive tumor cells
Description: (§1) The inhibitory effect on the KIF18A target by the compounds of the present disclosure was evaluated by testing the inhibitory effect on proliferation of HCC1954 and HCC1395 cells by the compounds of the present disclosure.
(§2) HCC1954 (ATCC, CRL-2388) and HCC1395 (ATCC, CRL-2324) cells were cultured separately in RPMI-1640 complete medium (Gibco, A1049101) containing 20% fetal bovine serum (Gibco, 10099141C), 100 U penicillin, and 100 μg/mL streptomycin (Gibco, 15140-122). The Promega kit Cell Titer-Glo (Promega: G7572) was used in this method for test. • 1. HCC1954 (KIF18A-sensitive tumor cells) and HCC1395 (KIF18A-insensitive tumor cells) were cultured separately in T75 cell culture flasks (Corning, 430641), and the medium was placed in a 37° C., 5% CO2 incubator. • 2. When the cell density reached 70% to 80% (about 2 to 3 times per week), cells are passaged with trypsin (0.25% EDTA). • 3. The cell culture flask was taken out and the cells were separated by adding 2 mL of trypsin (0.25% EDTA source) for 5 minutes. • 4. Digestion was stopped by adding 8 mL of RPM1-1640 medium and the cell suspension was transferred to a centrifuge tube and centrifuged at 1000 rpm for 5 minutes. • 5. The cells were resuspended with 5 mL of RPMI-1640 medium. Cell density was adjusted to 5×10^3/mL (HCC1954), and 2.5×10^4/mL (HCC1395), respectively. • 6. 40 μL of cell solution was added to the 384-well plate (Corning, 3765). • 7. The 384-well plate was centrifuged at 1000 rpm for 1 minute. • 8. The cells were cultured overnight in a 37° C., 5% CO2 incubator. • 9. The next day, 40 nL of compound solution was added to the 384-well plate using Echo650. The plate was then placed in a 37° C., 5% CO2 incubator for 6 days. • 10. After 6 days, 20 μL of Cell-Titer-Glo (Promega, G7572) reagent was added per well. • 11. Luminescence values were measured using the EnVision Xcite Multilabel Reader (PerkinElmer, 2105-0020).
(§3) The percentage of inhibition of cell proliferation by the test compound at each concentration was calculated by comparing with the values of the control group (0.1% DMSO). The IC50 values of the compounds were obtained by concentration-inhibition rate nonlinear regression analysis of the test compounds using GraphPad Prism 9.

[2] = test system: HCC1954 cells; test: HCC1954 cell proliferation (Cell Titer-Glo, 6 days); format: cell-based; conditions: KIF18A-sensitive tumor cells
Description: as §1, §2, §3

[3] = molecular target: KIF18A (Homo sapiens (Human), UniProt Q8NI77); test: KIF18A ATPase activity under tubulin stimulation (ADP-Glo assay); format: biochemical; conditions: KIF18A 30 nM, ATP 150 μM, pig microtubules
Chain of KIF18A (Q8NI77 whole entry): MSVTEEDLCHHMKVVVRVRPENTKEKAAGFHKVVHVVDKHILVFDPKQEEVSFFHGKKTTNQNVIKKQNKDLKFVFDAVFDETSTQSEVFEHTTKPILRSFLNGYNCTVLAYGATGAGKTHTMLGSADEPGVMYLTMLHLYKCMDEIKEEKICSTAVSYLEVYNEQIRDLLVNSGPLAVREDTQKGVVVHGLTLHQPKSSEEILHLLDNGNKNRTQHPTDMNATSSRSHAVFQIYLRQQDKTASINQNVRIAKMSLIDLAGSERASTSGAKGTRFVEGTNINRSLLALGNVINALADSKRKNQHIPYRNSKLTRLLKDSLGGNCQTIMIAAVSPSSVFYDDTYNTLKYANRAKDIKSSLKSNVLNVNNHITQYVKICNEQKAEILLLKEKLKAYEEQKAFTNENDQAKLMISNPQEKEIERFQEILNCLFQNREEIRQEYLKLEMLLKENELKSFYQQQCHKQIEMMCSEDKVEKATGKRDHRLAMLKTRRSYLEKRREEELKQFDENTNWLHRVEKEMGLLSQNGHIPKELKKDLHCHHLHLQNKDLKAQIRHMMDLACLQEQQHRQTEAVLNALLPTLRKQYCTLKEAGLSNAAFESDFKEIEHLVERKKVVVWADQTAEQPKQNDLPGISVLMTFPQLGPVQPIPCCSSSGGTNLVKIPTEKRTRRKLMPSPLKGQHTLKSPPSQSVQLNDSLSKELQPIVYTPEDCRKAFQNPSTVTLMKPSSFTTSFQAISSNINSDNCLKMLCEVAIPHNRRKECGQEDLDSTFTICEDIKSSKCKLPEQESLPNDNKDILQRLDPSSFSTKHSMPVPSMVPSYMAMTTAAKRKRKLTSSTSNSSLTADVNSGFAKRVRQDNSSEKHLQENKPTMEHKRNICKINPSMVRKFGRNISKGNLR
Chain of KIF18A (P02550 whole entry partner): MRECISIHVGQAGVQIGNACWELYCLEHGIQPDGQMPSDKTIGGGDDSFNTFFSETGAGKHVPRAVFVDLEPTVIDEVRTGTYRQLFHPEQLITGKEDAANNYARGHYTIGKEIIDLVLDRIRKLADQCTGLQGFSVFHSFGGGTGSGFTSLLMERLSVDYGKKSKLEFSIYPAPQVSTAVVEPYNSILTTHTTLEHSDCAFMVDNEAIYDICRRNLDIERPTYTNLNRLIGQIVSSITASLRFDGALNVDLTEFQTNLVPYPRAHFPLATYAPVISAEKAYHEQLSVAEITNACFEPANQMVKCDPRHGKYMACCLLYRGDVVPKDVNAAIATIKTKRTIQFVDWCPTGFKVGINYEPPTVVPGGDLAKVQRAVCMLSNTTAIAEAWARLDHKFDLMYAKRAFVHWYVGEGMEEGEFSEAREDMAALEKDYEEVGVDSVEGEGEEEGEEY
Chain of KIF18A (P02554 whole entry partner): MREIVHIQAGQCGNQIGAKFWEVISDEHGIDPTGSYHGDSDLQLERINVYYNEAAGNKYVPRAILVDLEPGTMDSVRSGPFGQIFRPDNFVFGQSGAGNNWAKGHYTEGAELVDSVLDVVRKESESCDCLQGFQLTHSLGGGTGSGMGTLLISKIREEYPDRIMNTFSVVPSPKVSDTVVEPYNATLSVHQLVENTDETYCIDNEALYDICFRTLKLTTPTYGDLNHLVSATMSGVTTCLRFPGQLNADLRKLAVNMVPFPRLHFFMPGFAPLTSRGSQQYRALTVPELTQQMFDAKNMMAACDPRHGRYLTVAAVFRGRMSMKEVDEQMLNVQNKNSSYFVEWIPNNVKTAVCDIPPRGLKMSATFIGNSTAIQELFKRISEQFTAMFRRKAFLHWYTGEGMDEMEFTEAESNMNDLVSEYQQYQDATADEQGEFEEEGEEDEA

[4] = test system: OVCAR-3 cells; test: OVCAR-3 cell proliferation (Cell Titer-Glo, 10 days); format: cell-based, human
Outline: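 IC50 was fitted by nonlinear regression of percent inhibition versus the 0.1% DMSO control. Luminescence was read with Cell Titer-Glo after 10 days of co-culture of logarithmic-phase cells (400/well) with compound at 0.12 nM–10 μM final, in medium with 20% fetal bovine serum and 0.01 mg/mL insulin.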

[5] = test system: HT-29 cells; test: HT-29 cell proliferation (Cell Titer-Glo, 6 days); format: cell-based; conditions: Homo sapiens, HT-29, 144 h
Description: The inhibitory effect on the KIF18A target by the compounds of the present disclosure was evaluated by testing the inhibitory effect on proliferation of HT-29 cells by the compounds of the present disclosure.
HT-29 (ATCC, HTB-38) cells were cultured in McCoy's 5a complete medium (Gibco, 12330-031) containing 10% fetal bovine serum (Gibco, 10099-141C), 100 U penicillin and […] streptomycin (Gibco, 15140-122). The Promega kit Cell Titer-Glo (Promega: G7572) was used in this method for test. • 1. HT-29 cells were cultured in T75 cell flasks (Corning, 430641) and the medium was placed in a 37° C., 5% CO2 incubator. Cells were passaged when reaching a cell density of 70%-80%, approximately twice per week. • 2. To perform the experiment, the test compounds were dissolved in DMSO to prepare a 10 mM stock solution, and the test compounds were added to the 384-well cell test plate (Corning, 3765) at the predetermined concentration using ECHO. • 3. The cell culture flask was taken out, the medium was removed, and the cells were rinsed with PBS. Then 2 mL of trypsin (with 0.25% EDTA) was added, and the flask was placed in the incubator for digestion for 4 minutes. • 4. Digestion was stopped by adding 4 mL of complete medium and the cell suspension was transferred to a centrifuge tube and centrifuged at 1000 rpm for 4 minutes. • 5. The cells were resuspended in 6 mL of complete medium, followed by cell counting. The cell density was adjusted to 4,170 cells/mL, and the cells were added to a 384-well plate at 60 μL/well. • 6. The 384-well plate was centrifuged at 500 rpm for 1 minute, and then placed in a 37° C., 5% CO2 incubator for 6 days of cultivation. • 7. Six days later, the cell culture plate was equilibrated for 10 minutes at room temperature, 25 μL of Cell Titer-Glo was added to each well, and the mixture was shaken and mixed well and let stand for 5 minutes. The luminescence values for samples in various wells were read using a microplate reader in Luminescence mode.
as §3, with “(0.3%” for “(0.1%”

[6] = test system: HCT116 cells; test: HCT116 cell anti-proliferation assay; format: cell-based; conditions: Homo sapiens, HCT-116, 144 h, 6 days, Cell Titer-Glo
Description: HCT116 (ATCC, CCL-247) cells were cultured in McCoy's 5a complete medium (Gibco, 12330-031) containing 10% fetal bovine serum (Gibco, 10099-141C), 100 U penicillin and 100 μg/mL streptomycin (Gibco, 15140-122). The Promega kit Cell Titer-Glo (Promega: G7572) was used in this method for test.
(§4) HCT116 cells were cultured in T75 cell flasks (Corning, 430641) and the cells were placed in a 37° C., 5% CO2 incubator. Cells were passaged when reaching a cell density of 70%-80%, approximately twice per week. To perform the experiment, the test compounds were dissolved in DMSO to prepare a 10 mM stock solution, and the test compounds were added to the 384-well cell test plate (Corning, 3765) at the predetermined concentration (19.5 nM-[…]) using ECHO. HCT1169 cells were digested and 150 cells (60 μL medium) were seeded per well in the test plate. The 384-well plate was then centrifuged at 500 rpm for 1 minute, and then placed in a 37° C., 5% CO2 incubator for 6 days of cultivation. Six days later, the cell culture plate was equilibrated for 10 minutes at room temperature, 25 μL of Cell Titer-Glo was added to each well, and the mixture was shaken and mixed well and let stand for 5 minutes. The luminescence values for samples in various wells were read using a microplate reader in Luminescence mode.
as §3, with “(0.2%” for “(0.1%”

[7] = test system: A2780 cells; test: A2780 cell anti-proliferation assay; format: cell-based; conditions: Homo sapiens, A2780, 144 h, 6 days, Cell Titer-Glo
Description: A2780 (ECACC) cells were cultured in RPMI-1640 complete medium (Gibco, A1049101) containing 10% fetal bovine serum (Gibco, 10099-141C), 100 U penicillin and 100 μg/mL streptomycin (Gibco, 15140-122). The Promega kit Cell Titer-Glo (Promega: G7572) was used in this method for test.
as §4, with “A2780” for “HCT116”, “once every five days.” for “approximately twice per week.”, “A2780” for “HCT1169”, “4000” for “150”
as §3, with “inhibition of A2780 cell proliferation” for “inhibition of cell proliferation”, “control group (0.2% DMSO). The” for “control group (0.1% DMSO). The”

SMILES	IC50 [1]	IC50 [2]	IC50 [3]	IC50 [4]	IC50 ([1]; Homo sapiens, HCC1395, 144 h)	IC50 ([2]; Homo sapiens, HCC1954, 144 h)	IC50 ([4]; Homo sapiens, OVCAR-3, 240 h)	IC50 [5]	IC50 [6]	IC50 [7]
Nc1cc(NS(=O)(=O)CCO)cc(N2CCC3(CC2)CC3)c1C(=O)Nc1cccc2c1ccn2CC1CC1 [Example 41]		10 to 500 nM	50 to 500 nM	50 to 500 nM						
CC1OCCn2c1cc1c(NC(=O)c3ccc(NS(=O)(=O)CCO)cc3N3CCC(=C(F)F)CC3)cccc12 (centres unmarked) [Example 320, 2-(4-(difluoromethylene)piperidin-1-yl)-4-((2-hydroxyethyl)sulfonamido)-N-(1-methyl-3,4-dihydro-1H-[1,4]oxazino[4,3-a]indol-9-yl)benzamide]			50 to 500 nM		> 5000 nM	10 to 500 nM	≤ 50 nM			
O=C(Nc1cccc2c1cc(Cl)n2CC1CC1)c1ccc(NS(=O)(=O)CCO)cc1N1CCC2(CC1)CC2 [Example 13, N-(2-chloro-1-(cyclopropylmethyl)-1H-indol-4-yl)-4-((2-hydroxyethyl)sulfonamide)-2-(6-azaspiro[2.5]octan-6-yl)benzamide]	> 5000 nM	10 to 500 nM	50 to 500 nM	50 to 500 nM						
COc1ccc(NC(=O)c2ccc(NS(=O)(=O)CCO)cc2N2CCC3(CC2)CC3)c2cc3n(c12)CCOC3 [Compound 404, 4-((2-hydroxyethyl)sulfonamido)-N-(6-methoxy-3,4-dihydro-1H-[1,4]oxazinyl[4,3-a]indol-9-yl)-2-(6-azaspiro[2.5]oct-6-yl)benzamide]							≤ 50 nM	≤ 200 nM	> 10000 nM	> 10000 nM
O=C(Nc1cc(F)cc2c1ccn2CC1CC1)c1ccc(NS(=O)(=O)CCO)cc1N1CCC2(CC1)CC2 [Example 50]	> 5000 nM	10 to 500 nM	50 to 500 nM	50 to 500 nM						
CC1(C)Cc2nc3c(NC(=O)c4ccc(NS(=O)(=O)CCO)cc4N4CCC5(CC4)CC5)cccc3n2C1 [Example 490, N-(2,2-dimethyl-2,3-dihydro-1H-benzo[d]pyrrolo[1,2-a]imidazol-5-yl)-4-((2-hydroxyethyl)sulfonamido)-2-(6-azaspiro[2.5]oct-6-yl)benzamide]			50 to 500 nM			10 to 500 nM	50 to 500 nM			

Results, then the compound that gave them:

IC50 [1]	IC50 [2]	IC50 [3]	IC50 [4]	IC50 ([1]; Homo sapiens, HCC1395, 144 h)	IC50 ([2]; Homo sapiens, HCC1954, 144 h)	IC50 ([4]; Homo sapiens, OVCAR-3, 240 h)	IC50 [5]	IC50 [6]	IC50 [7]	SMILES
> 5000 nM	10 to 500 nM	≤ 50 nM	50 to 500 nM							O=C(Nc1cccc2c1ncn2CC1CC1)c1ccc(NS(=O)(=O)CCO)cc1N1CCC2(CC1)CC2 [Example 16]
		≤ 50 nM		> 5000 nM	10 to 500 nM	≤ 50 nM				O=C(Nc1cccc2c1nc1n2CCOC1)c1ccc(NS(=O)(=O)CCO)cc1N1CCC2(CC1)CC2 [Example 304, N-(3,4-dihydro-1H-benzo[4,5]imidazo[2,1-c][1,4]oxazin-9-yl)-4-((2-hydroxyethyl)sulfonamido)-2-(6-azaspiro[2.5]octan-6-yl)benzamide]
		50 to 500 nM		> 5000 nM	10 to 500 nM	50 to 500 nM				CN1CCn2c(cc3c(NC(=O)c4ccc(NS(=O)(=O)CCO)cc4N4CCC5(CC4)CC5)cccc32)C1 [Example 234, 4-(2-hydroxyethyl)sulfonamido-N-(2-methyl-1,2,3,4-tetrahydropyrazino[1,2-a]indol-9-yl)-2-(6-azaspiro[2.5]octan-6-yl)benzamide]
> 5000 nM	10 to 500 nM	≤ 50 nM	50 to 500 nM							O=C(Nc1cccc2c1cc1n2CCCC1)c1ccc(NS(=O)(=O)CCO)cc1N1CCC2(CC1)CC2 [Example 126, 4-((2-hydroxyethyl)sulfonamide)-2-(6-azaspiro[2.5]octan-6-yl)-N-(6,7,8,9-tetrahydropyridine[1,2-a]indole-1)benzamide]
> 5000 nM	≤ 10 nM	≤ 50 nM								O=C(Nc1cccc2c1cc1n2CCC1)c1ccc(NS(=O)(=O)CCO)cc1N1CCC2(CC1)CC2 [Example 129, N-(2,3-dihydro-1H-pyrrolo[1,2-a]indol-8-yl)-4-((2-hydroxyethyl)sulfonamide)-2-(6-azaspiro[2.5]octan-6-yl)benzamide]
